Experimental findings from patent publication US9221766B2, “Compounds as diacylglycerol acyltransferase inhibitors” (GlaxoSmithKline LLC, priority 2012, dated 2015) are described below.

This assay deals with T1, Human DGAT1 (Homo sapiens, UniProt O75907).
T1 construct: made in house; host or cells: Sf9 insect cells (baculovirus); microsomes used as enzyme
T1 sequence (O75907 1-488): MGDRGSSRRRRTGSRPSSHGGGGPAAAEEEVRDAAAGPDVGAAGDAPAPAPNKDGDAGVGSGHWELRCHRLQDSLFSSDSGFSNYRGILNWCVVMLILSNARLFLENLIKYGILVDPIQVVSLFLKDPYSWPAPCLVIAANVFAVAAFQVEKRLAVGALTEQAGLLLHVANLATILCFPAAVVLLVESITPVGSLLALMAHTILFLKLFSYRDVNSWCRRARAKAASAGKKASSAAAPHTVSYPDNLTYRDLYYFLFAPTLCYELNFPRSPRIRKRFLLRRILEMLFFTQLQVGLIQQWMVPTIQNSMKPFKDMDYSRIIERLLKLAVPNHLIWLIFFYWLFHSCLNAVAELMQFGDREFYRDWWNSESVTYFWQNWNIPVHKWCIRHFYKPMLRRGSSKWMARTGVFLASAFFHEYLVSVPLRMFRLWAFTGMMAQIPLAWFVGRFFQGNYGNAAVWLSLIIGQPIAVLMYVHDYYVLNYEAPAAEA
The assay is described as follows: human DGAT1 lipid extraction (LE) assay, inhibition of triacylglycerol product formation. It is filed as biochemical. To be noted: human DGAT1 microsomes from Sf9 cells, read-out: hDGAT LE IC50. Here is the method: Human DGAT1 was expressed in Sf9 insect cells using a baculovirus expression system. Microsomes were prepared and used as enzyme for in vitro inhibition testing in either of two formats measuring production of coenzyme A or tridecanoylglycerol product, respectively. All steps were performed at 21-23° C. All data for DGAT1 inhibition by test compounds were collected under conditions where product formation was linear with reaction time.
For inhibition of triacylglycerol product formation, 11 uL reactions were run in white Polyplate-384 (PerkinElmer6007300) starting with a 30 minute pre-reaction incubation of 5 uL of 2.2× enzyme and 1 uL of 100% DMSO containing test compound or control compound, {4-[4-(4-amino-7,7-dimethyl-7H-pyrimido[4,5-b][1,4]oxazin-6-yl)phenyl]cyclohexyl}acetic acid. Some assays were performed with inclusion of didecanoylglycerol in the pre-reaction incubation of test compounds and enzyme. Reactions were initiated after 30 minute pre-reaction incubation via addition of 5 uL of 2.2× substrate. Final reaction conditions consisted of 50 mM HEPES pH 7.5, 2 mM MgCl2, 1 mM CHAPS, 25 uM didecanoylglycerol, 0.5 uM decanoyl-CoA, 0.3 nCi/uL [^14C-]decanoyl-CoA or 0.5 nCi/uL [^3H]-decanoyl-CoA, 0.05-4 ug/mL microsomal protein, and 1% DMSO. Following 60 minute reaction incubation, reactions were stopped with 40 uL of 45% isopropanol and 50 mM sodium carbonate in water and mixed. Extraction of tridecanoylglycerol product was accomplished via addition of 30 uL Microscint-E (Perkin Elmer) and 2 hours of incubation (sealed). Plates were read on a Microbeta Microplate reader Inhibition was normalized to controls containing DMSO or 10 uM {4-[4-(4-amino-7,7-dimethyl-7H-pyrimido[4,5-b][1,4]oxazin-6-yl)phenyl]cyclohexyl}acetic acid. IC50s were fitted using GraphPad Prism to a sigmoidal dose response.
Consider `O=C(O)CC1(CC(F)(F)F)CCc2cc(-c3ccc(Nc4ccc(Cl)cc4)cn3)ccc2C1=O` (single isomer, unassigned) [Example 2, 2-(6-(5-(4-Chlorophenylamino)pyridin-2-yl)-1-oxo-2-(2,2,2-trifluoroethyl)-1,2,3,4-tetrahydronaphthalen-2-yl)acetic acid], for which the IC50 is not above 100 nM.
Regarding `CCC1(CC(=O)O)CCc2cc(-c3ccc(Nc4ccc(C(F)(F)F)nc4)cn3)ccc2C1=O` (single isomer, unassigned) [Example 4, 2-(2-Ethyl-1-oxo-6-(5-(6-(trifluoromethyl)pyridin-3-ylamino)pyridin-2-yl)-1,2,3,4-tetrahydronaphthalen-2-yl)acetic acid], the half-maximal inhibitory concentration (IC50) is not above 100 nM.
To `Cc1cnc(Nc2ccc(-c3ccc4c(c3)CCC(CC(=O)O)(CC(F)(F)F)C4=O)nn2)s1` (single isomer, unassigned) [Example 25, 2-(6-(6-(5-methylthiazol-2-ylamino)pyridazin-3-yl)-1-oxo-2-(2,2,2-trifluoroethyl)-1,2,3,4-tetrahydronaphthalen-2-yl)acetic acid] belongs 500 to 10000 nM.
In the case of `Cc1ccc(Nc2ccc(-c3ccc4c(c3)CCC(CC(=O)O)(CC(F)(F)F)C4=O)nc2)cc1` (single isomer, unassigned) [Example 9, 2-(1-oxo-6-(5-(p-tolylamino)pyridin-2-yl)-2-(2,2,2-trifluoroethyl)-1,2,3,4-tetrahydronaphthalen-2-yl)acetic acid] it was 100 to 500 nM.
To `O=C(O)CC1(CC(F)(F)F)CCc2cc(-c3cnc(Nc4ccc5c(c4)OCO5)cn3)ccc2C1=O` (single isomer, unassigned) [Example 20, 2-(6-(5-(benzo[d][1,3]dioxol-5-ylamino)pyrazin-2-yl)-1-oxo-2-(2,2,2-trifluoroethyl)-1,2,3,4-tetrahydronaphthalen-2-yl)acetic acid] belongs 500 to 10000 nM; to `O=C(O)CC1(CC(F)(F)F)CCc2cc(-c3cnc(Nc4ccc(Cl)cn4)cn3)ccc2C1=O` (single isomer, unassigned) [Example 17, 2-(6-(5-(5-chloropyridin-2-ylamino)pyrazin-2-yl)-1-oxo-2-(2,2,2-trifluoroethyl)-1,2,3,4-tetrahydronaphthalen-2-yl)acetic acid], 100 to 500 nM.
With `O=C(O)CC1(CC(F)(F)F)CCc2cc(-c3ccc(Nc4ccc(C(F)(F)F)nc4)nn3)ccc2C1=O` (single isomer, unassigned) [Example 23, 2-(1-oxo-2-(2,2,2-trifluoroethyl)-6-(6-(6-(trifluoromethyl)pyridin-3-ylamino)pyridazin-3-yl)-1,2,3,4-tetrahydronaphthalen-2-yl)acetic acid], the IC50 was not above 100 nM.
To `O=C(O)CC1(CC(F)(F)F)CCc2cc(-c3cnc(Nc4ccc(C(F)(F)F)nc4)s3)ccc2C1=O` (single isomer, unassigned) [Example 28, 2-(1-oxo-2-(2,2,2-trifluoroethyl)-6-(2-(6-(trifluoromethyl)pyridin-3-ylamino)thiazol-5-yl)-1,2,3,4-tetrahydronaphthalen-2-yl)acetic acid] belongs not above 100 nM.
On to `O=C(O)CC1(CC(F)(F)F)CCc2cc(-c3ccc(Nc4cccc(Cl)c4)nn3)ccc2C1=O` (single isomer, unassigned) [Example 21, 2-(6-(6-((3-chlorophenyl)amino)pyridazin-3-yl)-1-oxo-2-(2,2,2-trifluoroethyl)-1,2,3,4-tetrahydronaphthalen-2-yl)acetic acid], for which the IC50 is not above 100 nM.
As for `Cc1ccc(Nc2ccc(-c3ccc4c(c3)CCC(CC(=O)O)(CC(F)(F)F)C4=O)nc2)nc1` (single isomer, unassigned) [Example 13, 2-(6-(5-(5-methylpyridin-2-ylamino)pyridin-2-yl)-1-oxo-2-(2,2,2-trifluoroethyl)-1,2,3,4-tetrahydronaphthalen-2-yl)acetic acid], the IC50 was in the range of 100 to 500 nM.
In the case of `Cc1ccc(Nc2ccc(-c3ccc4c(c3)CCC(CC(=O)O)(CC(F)(F)F)C4=O)nc2)nc1` (single isomer, unassigned) [Example 12, 2-(6-(5-(5-methylpyridin-2-ylamino)pyridin-2-yl)-1-oxo-2-(2,2,2-trifluoroethyl)-1,2,3,4-tetrahydronaphthalen-2-yl)acetic acid], the IC50 was not above 100 nM.
As for `Cc1ccc(Nc2ccc(-c3ccc4c(c3)CCC(CC(=O)O)(CC(F)(F)F)C4=O)nn2)cn1` (single isomer, unassigned) [Example 22, 2-(6-(6-(6-methylpyridin-3-ylamino)pyridazin-3-yl)-1-oxo-2-(2,2,2-trifluoroethyl)-1,2,3,4-tetrahydronaphtha-len-2-yl)acetic acid], the IC50 was not above 100 nM.
To `CCC1(CC(=O)O)CCc2cc(-c3ccc(Nc4ccc(C(F)(F)F)nc4)cn3)ccc2C1=O` (single isomer, unassigned) [Example 5, 2-(2-ethyl-1-oxo-6-(5-(6-(trifluoromethyl)pyridin-3-ylamino)pyridin-2-yl)-1,2,3,4-tetrahydronaphthalen-2-yl)acetic acid] belongs 100 to 500 nM; to `O=C(O)CC1(CC(F)(F)F)CCc2cc(-c3cnc(Nc4ccc(C(F)(F)F)nc4)cn3)ccc2C1=O` (single isomer, unassigned) [Example 14, 2-(1-Oxo-2-(2,2,2-trifluoroethyl)-6-(5-(6-(trifluoromethyl)pyridin-3-ylamino)pyrazin-2-yl)-1,2,3,4-tetrahydro-naphthalen-2-yl)acetic acid], not above 100 nM.
For `O=C(O)CC1(CC(F)(F)F)CCc2cc(-c3cnc(Nc4ccc(C(F)(F)F)nc4)cn3)ccc2C1=O` (single isomer, unassigned) [Example 15, 2-(1-oxo-2-(2,2,2-trifluoroethyl)-6-(5-(6-(trifluoromethyl)pyridin-3-ylamino)pyrazin-2-yl)-1,2,3,4-tetrahydronaphthalen-2-yl)acetic acid], the IC50 was in the range of 500 to 10000 nM.
With `O=C(O)CC1(CC(F)(F)F)CCc2cc(-c3cnc(Nc4ccc(C(F)(F)F)nc4)s3)ccc2C1=O` (single isomer, unassigned) [Example 27, 2-(1-oxo-2-(2,2,2-trifluoroethyl)-6-(2-(6-(trifluoromethyl)pyridin-3-ylamino)thiazol-5-yl)-1,2,3,4-tetrahydronaphthalen-2-yl)acetic acid], the IC50 was in the range of 100 to 500 nM.
Regarding `O=C(O)CC1(CC(F)(F)F)CCc2cc(-c3ccc(Nc4ccc(Cl)cn4)cn3)ccc2C1=O` (single isomer, unassigned) [Example 7, 2-(6-(5-(5-chloropyridin-2-ylamino)pyridin-2-yl)-1-oxo-2-(2,2,2-trifluoroethyl)-1,2,3,4-tetrahydronaphthalen-2-yl)acetic acid], the IC50 is not above 100 nM.
`O=C(O)CC1(CC(F)(F)F)CCc2cc(-c3ccc(Nc4ccc(C(F)(F)F)nc4)nn3)ccc2C1=O` (single isomer, unassigned) [Example 24, 2-(1-oxo-2-(2,2,2-trifluoroethyl)-6-(6-(6-(trifluoromethyl)pyridin-3-ylamino)pyridazin-3-yl)-1,2,3,4-tetrahydronaphthalen-2-yl)acetic acid]: the IC50 is 500 to 10000 nM.
Take `O=C(O)CC1(CC(F)(F)F)CCc2cc(-c3ccc(Nc4ccc(Cl)cc4)cn3)ccc2C1=O` (single isomer, unassigned) [Example 6, 2-(6-(5-(4-chlorophenylamino)pyridin-2-yl)-1-oxo-2-(2,2,2-trifluoroethyl)-1,2,3,4-tetrahydronaphthalen-2-yl)acetic acid]: the IC50 is not above 100 nM.
With `O=C(O)CC1(CC(F)(F)F)CCc2cc(-c3ccc(Nc4ccc(F)c(F)c4)cn3)ccc2C1=O` (single isomer, unassigned) [Example 10, 2-(6-(5-(3,4-difluorophenylamino)pyridin-2-yl)-1-oxo-2-(2,2,2-trifluoroethyl)-1,2,3,4-tetrahydronaphthalen-2-yl)acetic acid], the IC50 was not above 100 nM.
As to `O=C(O)CC1(CC(F)(F)F)CCc2cc(-c3ccc(Nc4cccc(Cl)c4)cn3)ccc2C1=O` (single isomer, unassigned) [Example 11, 2-(6-(5-(3-chlorophenylamino)pyridin-2-yl)-1-oxo-2-(2,2,2-trifluoroethyl)-1,2,3,4-tetrahydronaphthalen-2-yl)acetic acid], the IC50 fell in the range of 100 to 500 nM.

The IC50 is the concentration needed to halve the response being measured.
